According to the supplement of paper PMC10307832:

Experiments:
Assay in all cases: relative viability (nuclei count vs DMSO), 5 days (fraction); higher = more cells survive
Pazopanib + Palbociclib = compound: Cc1ccc(Nc2nccc(N(C)c3ccc4c(C)n(C)nc4c3)n2)cc1S(N)(=O)=O [Pazopanib] + CC(=O)c1c(C)c2cnc(Nc3ccc(N4CCNCC4)cn3)nc2n(C2CCCC2)c1=O [Palbociclib] (partner 0.5 µM)
In short: (§1)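 Relative viability was taken as the ratio of nuclei in treated wells to nuclei in vehicle wells. Lung cancer cell lines in 1536-well plates received compounds by pin tool one day after seeding, either one drug alone or a fixed anchor-drug dose plus five library-drug doses (not always all listed) in √10 steps. Nuclei were counted on 4× images after 5 days of treatment, and values are medians of duplicate plates.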

Pazopanib + Linsitinib = compound: Cc1ccc(Nc2nccc(N(C)c3ccc4c(C)n(C)nc4c3)n2)cc1S(N)(=O)=O [Pazopanib] + C[C@]1(O)C[C@@H](c2nc(-c3ccc4ccc(-c5ccccc5)nc4c3)c3c(N)nccn32)C1 [Linsitinib] (partner 1 µM)
In short: as §1

Pazopanib + Navitoclax = compound: Cc1ccc(Nc2nccc(N(C)c3ccc4c(C)n(C)nc4c3)n2)cc1S(N)(=O)=O [Pazopanib] + CC1(C)CCC(c2ccc(Cl)cc2)=C(CN2CCN(c3ccc(C(=O)NS(=O)(=O)c4ccc(N[C@H](CCN5CCOCC5)CSc5ccccc5)c(S(=O)(=O)C(F)(F)F)c4)cc3)CC2)C1 [Navitoclax] (partner 0.5 µM)
In short: as §1

Ponatinib + Tozasertib = compound: Cc1ccc(C(=O)Nc2ccc(CN3CCN(C)CC3)c(C(F)(F)F)c2)cc1C#Cc1cnc2cccnn12 [Ponatinib] + Cc1cc(Nc2cc(N3CCN(C)CC3)nc(Sc3ccc(NC(=O)C4CC4)cc3)n2)n[nH]1 [Tozasertib] (partner 0.1 µM)
In short: as §1

Row | Cell Line | relative viability (Pazopanib + Palbociclib; first compound 0.01 µM) | relative viability (Pazopanib + Palbociclib; first compound 0.03162 µM) | relative viability (Pazopanib + Palbociclib; first compound 0.1 µM) | relative viability (Pazopanib + Palbociclib; first compound 0.3162 µM) | relative viability (Pazopanib + Palbociclib; first compound 1 µM) | relative viability (Pazopanib + Linsitinib; first compound 0.01 µM) | relative viability (Pazopanib + Linsitinib; first compound 0.03162 µM) | relative viability (Pazopanib + Linsitinib; first compound 0.1 µM) | relative viability (Pazopanib + Linsitinib; first compound 0.3162 µM) | relative viability (Pazopanib + Linsitinib; first compound 1 µM) | relative viability (Pazopanib + Navitoclax; first compound 0.01 µM) | relative viability (Pazopanib + Navitoclax; first compound 0.03162 µM) | relative viability (Pazopanib + Navitoclax; first compound 0.1 µM) | relative viability (Pazopanib + Navitoclax; first compound 0.3162 µM) | relative viability (Pazopanib + Navitoclax; first compound 1 µM) | relative viability (Ponatinib + Tozasertib; first compound 0.002 µM) | relative viability (Ponatinib + Tozasertib; first compound 0.006325 µM) | relative viability (Ponatinib + Tozasertib; first compound 0.06325 µM) | relative viability (Ponatinib + Tozasertib; first compound 0.2 µM)
1 | SW 1573 | 0.468 | 0.349 | 0.454 | 0.367 | 0.365 | 0.716 | 0.798 | 0.817 | 0.935 | 1.01 | 1.16 | 1.06 | 1.02 | 1.2 | 1.28 | 0.202 | 0.16 | 0.162 | 0.176
2 | NCI-H2009 | 0.222 | 0.218 | 0.185 | 0.271 | 0.258 | 1.22 | 1.22 | 1.21 | 1.15 | 1.06 | 1.19 | 1.18 | 1.2 | 1.11 | 0.979 | 0.713 | 0.726 | 0.848 | 0.749
3 | LOU-NH91 | 0.511 | 0.502 | 0.564 | 0.538 | 0.547 | 0.89 | 0.98 | 0.984 | 1.04 | 0.935 | 0.718 | 0.701 | 0.732 | 0.843 | 0.766 | 0.65 | 0.668 | 0.71 | 0.595
4 | NCI-H3122 | 0.194 | 0.175 | 0.217 | 0.189 | 0.241 | 0.969 | 1.06 | 0.998 | 1.12 | 0.945 | 1.09 | 1.05 | 1.05 | 1.08 | 1.13 | 0.43 | 0.421 | 0.382 | 0.359
5 | LCLC-97TM1 |  | 0.202 | 0.212 | 0.205 | 0.264 |  | 0.229 | 0.154 | 0.2 | 0.211 |  | 0.365 | 0.427 | 0.547 | 0.655 | 0.236 | 0.298 | 0.17 | 0.218
6 | NCI-H647 | 0.345 | 0.463 | 0.363 | 0.361 | 0.29 | 1.17 | 1.4 | 1.17 | 1.23 | 1.11 | 1.14 | 1.08 | 1.21 | 1.17 | 1.16 | 0.318 | 0.224 | 0.288 | 0.259
7 | NCI-H838 | 0.181 | 0.216 | 0.243 | 0.258 | 0.246 | 1.01 | 1.05 | 1.01 | 1.18 | 1.19 | 1.1 | 1.22 | 1.21 | 1.24 | 1.26 | 0.275 | 0.271 | 0.286 | 0.256
8 | H3255 | 0.314 | 0.315 | 0.349 | 0.328 | 0.361 | 0.888 | 0.954 | 1.01 | 0.814 | 1.03 | 0.488 | 0.523 | 0.548 | 0.536 | 0.572 | 0.606 | 0.638 | 0.561 | 0.459
9 | NCI-H1395 | 0.572 | 0.647 | 0.659 | 0.6 | 0.625 | 0.983 | 1.27 | 1.07 | 0.992 | 1.05 | 1.15 | 1.25 | 1.24 | 1.33 | 1.28 | 0.636 | 0.747 | 0.768 | 0.701
10 | NCI-H1437 | 0.327 | 0.313 | 0.284 | 0.338 | 0.313 | 1.04 | 1.07 | 0.973 | 1.04 | 1.05 | 1.11 | 1.06 | 1.07 | 0.985 | 1.08 | 0.363 | 0.419 | 0.411 | 0.393
11 | LU99A |  | 0.39 | 0.447 | 0.444 | 0.416 | 0.377 | 0.522 | 0.589 | 0.565 | 0.52 | 0.697 | 0.819 | 0.769 | 0.773 | 0.843 | 0.227 | 0.293 | 0.251 | 0.263
